Measurements published in ChEMBL document CHEMBL3112394, “Identification of the 5,5-dioxo-7,8-dihydro-6H-thiopyrano[3,2-d]pyrimidine derivatives as highly selective PDE4B inhibitors” (Bioorg Med Chem Lett, 2014).

Key:
[1] = Antiinflammatory activity in Balb/c mouse splenocytes assessed as inhibition of LPS-induced TNF-alpha production after 18 to 24 hrs; format: functional, cell-based; conditions: Splenocyte
[2] = target: 3',5'-cyclic-AMP phosphodiesterase 4B (Homo sapiens, UniProt Q07343); test: Inhibition of full-length human PDE4B2 assessed as cAMP hydrolysis preincubated for 20 mins followed by cAMP addition measured after 30 mins
Homo sapiens [3] = species: Homo sapiens; test: Selectivity ratio of IC50 for full-length human PDE4D2 to IC50 for full-length human PDE4B2
[4] = target: T1, 3',5'-cyclic-AMP phosphodiesterase 4D (Homo sapiens, UniProt Q08499); test: Inhibition of full-length human PDE4D2 assessed as cAMP hydrolysis preincubated for 20 mins followed by cAMP addition measured after 30 mins
[5] = target: T1, 3',5'-cyclic-AMP phosphodiesterase 4D; test: Inhibition of recombinant human PDE4D (78 to 508)
Homo sapiens [6] = species: Homo sapiens; test: Selectivity ratio of IC50 for recombinant human PDE4D (78 to 508) to IC50 for recombinant human PDE4B (152 to 564)
[7] = 1-octanol-phosphate buffered saline distribution coefficient, log D of the compound at 200 uM at pH 7.4 after 30 mins by shake flask method; format: physicochemical
[8] = Permeability of the compound at 50 uM at pH 7.4 after 4 hrs by PAMPA; format: ADME; conditions: read-out: permeability
[9] = Cmax in mouse at 10 mg/kg, po; format: ADME, organism-based; parameters: dose 10 mg/kg, route oral; conditions: in vivo
[10] = Terminal half life in mouse at 10 mg/kg, po; format: ADME, organism-based; parameters: dose 10 mg/kg, route oral; conditions: in vivo, read-out: beta t1/2 (converted)
[11] = AUC in mouse at 10 mg/kg, po; format: ADME, organism-based; parameters: dose 10 mg/kg, route oral; conditions: plasma

Chain of 3',5'-cyclic-AMP phosphodiesterase 4B (Q07343 whole entry): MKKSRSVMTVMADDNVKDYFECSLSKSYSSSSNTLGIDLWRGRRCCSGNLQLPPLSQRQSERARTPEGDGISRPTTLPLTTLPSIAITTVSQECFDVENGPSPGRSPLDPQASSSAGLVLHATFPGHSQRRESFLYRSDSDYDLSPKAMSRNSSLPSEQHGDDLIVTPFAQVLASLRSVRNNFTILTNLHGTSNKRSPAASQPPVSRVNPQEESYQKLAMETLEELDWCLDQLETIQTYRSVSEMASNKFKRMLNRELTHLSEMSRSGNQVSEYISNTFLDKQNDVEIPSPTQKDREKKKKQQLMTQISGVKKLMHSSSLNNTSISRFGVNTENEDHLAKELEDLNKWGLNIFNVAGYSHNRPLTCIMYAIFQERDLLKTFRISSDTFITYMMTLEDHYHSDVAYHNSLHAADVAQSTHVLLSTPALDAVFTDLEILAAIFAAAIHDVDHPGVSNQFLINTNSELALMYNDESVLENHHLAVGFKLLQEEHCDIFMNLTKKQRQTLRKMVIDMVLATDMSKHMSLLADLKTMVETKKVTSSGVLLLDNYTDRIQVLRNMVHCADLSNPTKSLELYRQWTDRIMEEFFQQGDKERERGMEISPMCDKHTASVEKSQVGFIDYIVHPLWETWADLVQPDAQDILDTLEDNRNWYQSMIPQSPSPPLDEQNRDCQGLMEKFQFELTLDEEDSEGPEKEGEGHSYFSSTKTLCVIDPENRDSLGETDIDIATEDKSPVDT
T1 sequence (Q08499 whole entry): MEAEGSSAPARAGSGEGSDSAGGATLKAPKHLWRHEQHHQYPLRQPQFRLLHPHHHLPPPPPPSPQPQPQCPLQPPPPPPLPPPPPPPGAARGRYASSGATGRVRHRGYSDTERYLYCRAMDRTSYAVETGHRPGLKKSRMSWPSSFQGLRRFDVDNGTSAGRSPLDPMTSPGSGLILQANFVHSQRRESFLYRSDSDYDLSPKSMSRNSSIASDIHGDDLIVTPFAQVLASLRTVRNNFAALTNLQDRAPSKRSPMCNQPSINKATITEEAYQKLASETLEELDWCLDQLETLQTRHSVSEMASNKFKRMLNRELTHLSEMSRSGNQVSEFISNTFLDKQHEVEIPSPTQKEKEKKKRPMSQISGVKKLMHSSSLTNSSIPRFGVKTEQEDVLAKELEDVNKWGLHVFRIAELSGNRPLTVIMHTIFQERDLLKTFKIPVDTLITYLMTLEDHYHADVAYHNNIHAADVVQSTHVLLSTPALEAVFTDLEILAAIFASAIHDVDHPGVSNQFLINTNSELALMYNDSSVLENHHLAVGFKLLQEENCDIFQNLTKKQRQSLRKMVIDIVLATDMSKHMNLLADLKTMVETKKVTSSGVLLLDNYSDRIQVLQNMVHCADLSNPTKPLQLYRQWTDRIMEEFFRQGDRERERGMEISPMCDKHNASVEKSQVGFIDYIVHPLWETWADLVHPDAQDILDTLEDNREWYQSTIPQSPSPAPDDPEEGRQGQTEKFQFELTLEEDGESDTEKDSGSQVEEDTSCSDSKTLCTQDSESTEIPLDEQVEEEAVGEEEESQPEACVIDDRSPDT

| IC50 [2] [µM] | Ratio IC50 (Homo sapiens [3]) | IC50 [4] [µM] | further results | Compound |
| --- | --- | --- | --- | --- |
| 0.0038 | 158 | 0.6 | IC50 [1]: 0.011 µM | O=C(O)Cc1ccc(Nc2nc(-c3cc4ccccc4s3)nc3c2S(=O)(=O)CCC3)cc1F |
| 0.049 | 12 | 0.6 |  | COc1ccc(-c2nc3c(c(Nc4cc(Cl)c(CC(=O)O)cc4Cl)n2)S(=O)(=O)CCC3)cc1F |
| 0.0082 | 171 | 1.4 | IC50 [1]: 0.131 µM | COc1ccc(-c2nc3c(c(Nc4ccc(CC(=O)O)c(F)c4)n2)S(=O)(=O)CCC3)c(F)c1F |
| 0.078 | 3.8 | 0.3 |  | COc1ccc(-c2nc3c(c(Nc4ccc(CC(=O)NCC(C)(C)C)cc4)n2)S(=O)(=O)CCC3)cc1F |
| 0.038 | 21 | 0.79 |  | O=C(O)Cc1ccc(Nc2nc(-c3ccc(-c4ccccc4)cc3)nc3c2S(=O)(=O)CCC3)cc1 |
| 0.013 | 100 | 1.3 |  | COc1ccc(-c2nc3c(c(Nc4ccc(CC(=O)O)cc4)n2)S(=O)(=O)CCC3)cc1Cl |
| 0.011 | 25 | 0.28 |  | COc1ccc(-c2nc3c(c(Nc4ccc(CC(=O)O)cc4)n2)SCCC3)cc1 |
| 0.064 | 20 | 1.3 |  | COc1ccc(-c2nc3c(c(Nc4ccc(CC(=O)O)c(Cl)c4)n2)S(=O)(=O)CCC3)cc1F |
| 0.038 | 21 | 0.79 |  | CN(C)c1ccc(-c2nc3c(c(Nc4ccc(CC(=O)O)cc4)n2)SCCC3)cc1 |
| 0.0099 | 57 | 0.56 |  | COc1ccc(-c2nc3c(c(Nc4cc(F)c(CC(=O)O)cc4Cl)n2)S(=O)(=O)CCC3)cc1F |
| 0.016 | 81 | 1.3 |  | COc1ccc(-c2nc3c(c(Nc4cc(F)c(CC(=O)O)cc4F)n2)S(=O)(=O)CCC3)cc1F |
| 0.0083 | 48 | 0.4 |  | O=C(O)Cc1ccc(Nc2nc(-c3cc4ccccc4s3)nc3c2S(=O)(=O)CCC3)cc1 |
| 0.057 | 12 | 0.68 |  | O=C(O)Cc1ccc(Nc2nc(-c3cccc(F)c3)nc3c2SCCC3)cc1 |
| 0.0059 | 137 | 0.81 | IC50 [1]: 0.044 µM | O=C(O)Cc1ccc(Nc2nc(-c3ccc4ccccc4c3)nc3c2S(=O)(=O)CCC3)cc1F |
| 0.0052 | 112 | 0.58 |  | COc1ccc(-c2nc3c(c(Nc4cc(F)c(CC(=O)O)c(F)c4)n2)S(=O)(=O)CCC3)cc1F |
| 0.21 | 6.2 | 1.3 | IC50 [5]: 1.3 µM; Ratio IC50 (Homo sapiens [6]): 45 | O=C(O)Cc1ccc(Nc2nc(-c3ccccc3)nc3c2SCCC3)cc1 |
| 0.034 | 29 | 1 |  | CC(=O)c1ccc(-c2nc3c(c(Nc4ccc(CC(=O)O)cc4)n2)SCCC3)cc1 |
| 0.14 | 53 | 7.4 |  | COc1ccc(-c2nc3c(c(Nc4ccc(CC(=O)O)cc4)n2)SCCC3)cn1 |
| 0.25 | 15 | 3.8 |  | COc1ccc(-c2nc3c(c(Nc4ccc(CC(=O)O)cc4)n2)S(=O)(=O)CCC3)cn1 |
| 0.01 | 100 | 1 |  | COc1ccc(-c2nc3c(c(Nc4ccc(CC(=O)O)cc4)n2)S(=O)(=O)CCC3)cc1F |
| 0.14 | 11 | 1.6 |  | CN(C)c1ccc(-c2nc3c(c(Nc4ccc(CC(=O)O)cc4)n2)SCCC3)cn1 |

| IC50 [2] [µM] | Ratio IC50 (Homo sapiens [3]) | IC50 [4] [µM] | further results | Compound |
| --- | --- | --- | --- | --- |
| 0.0075 | 173 | 1.3 | IC50 [1]: 0.096 µM | COc1ccc(-c2nc3c(c(Nc4ccc(CC(=O)O)c(F)c4)n2)S(=O)(=O)CCC3)cc1 |
| 0.01 | 86 | 0.86 |  | CC(=O)c1ccc(-c2nc3c(c(Nc4ccc(CC(=O)O)cc4)n2)S(=O)(=O)CCC3)cc1 |
| 0.044 | 34 | 1.5 |  | COc1ccc(-c2nc3c(c(Nc4ccc(CC(=O)O)cc4)n2)S(=O)(=O)CCC3)cc1 |
| 0.12 | 8.3 | 1 |  | O=C(O)Cc1ccc(Nc2nc(-c3ccc(F)cc3)nc3c2SCCC3)cc1 |
| 0.02 | 55 | 1.1 |  | O=C(O)Cc1ccc(Nc2nc(-c3cc4ccccc4o3)nc3c2S(=O)(=O)CCC3)cc1 |
| 0.03 | 9.7 | 0.29 |  | N#Cc1ccc(-c2nc3c(c(Nc4ccc(CC(=O)O)cc4)n2)SCCC3)cc1 |
| 0.056 | 21 | 1.2 |  | CN(C)c1ccc(-c2nc3c(c(Nc4ccc(CC(=O)O)cc4)n2)S(=O)(=O)CCC3)cn1 |
| 0.03 | 9.7 | 0.29 |  | COc1cccc2cc(-c3nc4c(c(Nc5ccc(CC(=O)O)cc5)n3)S(=O)(=O)CCC4)ccc12 |
| 0.12 | 3.5 | 0.42 |  | O=C(O)Cc1ccc(Nc2nc(-c3ccc(Cl)cc3)nc3c2SCCC3)cc1 |
| 0.003 | 433 | 1.3 | IC50 [1]: 0.011 µM | COc1ccc(-c2nc3c(c(Nc4ccc(CC(=O)O)c(F)c4)n2)S(=O)(=O)CCC3)cc1Cl |
| 0.0046 | 135 | 0.62 | logD at 0.5 h, 200 µM [7]: 0.8; Papp at 4 h, 50 µM [8]: 14.3 ×10⁻⁶ cm/s; IC50 [1]: 0.018 µM; Cmax [9]: 1700 ng/mL; half-life [10]: 2 h; AUC [11]: 2770 ng·h/mL | COc1ccc(-c2nc3c(c(Nc4ccc(CC(=O)O)c(F)c4)n2)S(=O)(=O)CCC3)cc1F |
| 0.071 | 6.1 | 0.43 |  | COc1ccc(-c2nc3c(c(Nc4ccc(CC(=O)O)cc4)n2)SCCC3)cc1Cl |
| 0.15 | 3.7 | 0.55 | IC50 [5]: 2.8 µM; Ratio IC50 (Homo sapiens [6]): 112 | O=C(O)Cc1ccc(Nc2nc(-c3ccccc3)nc3c2S(=O)(=O)CCC3)cc1 |
| 0.046 | 74 | 3.4 |  | COc1ccc(-c2nc3c(c(Nc4ccc(CC(=O)O)cc4)n2)S(=O)(=O)CCC3)c(F)c1F |
| 0.038 | 55 | 2.1 |  | CN(C)c1ccc(-c2nc3c(c(Nc4ccc(CC(=O)O)cc4)n2)S(=O)(=O)CCC3)cc1 |
| 0.019 | 27 | 0.52 |  | O=C(O)Cc1ccc(Nc2nc(-c3ccc4ccccc4c3)nc3c2S(=O)(=O)CCC3)cc1 |
| 0.14 | 16 | 2.2 |  | COc1ccc(-c2nc3c(c(Nc4ccc(CC(=O)O)cc4)n2)SCCC3)c(F)c1F |
| 0.014 | 31 | 0.44 |  | O=C(O)Cc1ccc(Nc2nc(-c3ccc4c(F)cccc4c3)nc3c2S(=O)(=O)CCC3)cc1 |
| 0.12 | 15 | 1.8 |  | COc1cccc(-c2nc3c(c(Nc4ccc(CC(=O)O)cc4)n2)SCCC3)c1 |
| 0.88 | 3.9 | 3.4 |  | O=C(O)Cc1ccc(Nc2nc(-c3ccccc3F)nc3c2SCCC3)cc1 |
| 0.07 | 2.6 | 0.18 | IC50 [5]: 0.26 µM; Ratio IC50 (Homo sapiens [6]): 12 | CCCCNC(=O)Cc1ccc(Nc2nc(-c3ccccc3)nc3c2S(=O)(=O)CCC3)cc1 |
